Experiments:
[1] = human, after felbamate; cited from earlier work
[2] = LC/MS quantification of felbamate and its metabolites excreted in patient urine; assay type: in vivo, human; conditions: 34 urine samples from 31 patients on felbamate therapy
Experimental: Preparation of Patient Urine Samples. Urine samples were obtained from patient volunteers undergoing felbamate therapy for control of epileptic seizures and under the care of physicians at either the University of Virginia (Charlottesville, Va.) or the EpiCare Center (Memphis, Tenn.). Urine samples were diluted four fold with distilled water (this was done prior to overnight shipment for samples requiring shipping) and placed in an orbital shaking water bath for˜20 min at 37° C. to insure that all of the analytes were in solution. 500 μL of this diluted sample were removed and added to 100 μL of a mixture of the four deuterated internal standards. […] After mixing, 200 μL were removed and added to 20 μL of 20% H0Ac. […] This fraction was then analyzed by LC/MS without further manipulation.
LC/MS Analysis of Urine Samples for Metabolite Quantification. LC/MS analysis was performed using a Waters 2690 HPLC equipped with an autosampler and a Waters 486 tunable absorbance detector. […] The post-column flow was directed through a Waters 486 tunable absorbance detector (10 μL flow cell, λ=214 nm) which was used for qualitative assessment of the sample and not for quantitation. […]
Quantification was achieved by integration of the peaks from the mass chromatogram for each analyte using software (Navigator 1.1) provided with the LCQ. […]

[3] = cited from earlier work
[4] = test system: rat model of painful peripheral neuropathy; conditions: rat (Imamura 1995); cited from earlier work
[5] = test system: intractable tic douloureux; conditions: doses of 1200-2400 mg/day (Chesire 1995); cited from earlier work
[6] = felbamate therapy; cited from earlier work
[7] = Chemical stability of felbamate metabolites; assay type: physicochemical; conditions: at relevant pH

## NC(=O)CC(C(=O)O)c1ccccc1 (centres unmarked) [acid carbamate 4, 3-carbamoyl-2-phenylpropionic acid]
[1]
  fraction of a felbamate dose represented by the metabolite: ~12 % of a dose

## NC(=O)OCC(COC(N)=O)c1ccccc1 [felbamate, 2-phenyl-1,3-propanediol dicarbamate]
[2]
  presence of atropaldehyde derived mercapturic acids 7 and 8 in urine: All of the urine samples analyzed were found to contain both of the mercapturic acids
[3]; add-on therapy in partial epilepsy in children (Carmant 1994)
  course of weight loss: weight loss was transient and returned to normal after twenty weeks
[3]; patients on felbamate monotherapy (Faught 1993)
  weight loss: 4-5%
[4]
  measures of pain: significant reductions in all measures of pain
[5]
  treatment effect: effectively treated
[6]
  mean onset time of severe toxicities: ≤ 6 months

## O=C1NC(=O)C(c2ccccc2)CO1 (centres unmarked) [oxazinane-dione 9]
[7]
  stability: unstable

Source: patent publication US20040023986A1, “Substituted felbamate derived compounds” (priority 2003, published 2004)
